The values below come from patent publication US8497380B2, “Substituted acetophenones useful as PDE4 inhibitors” (Leo Pharma A/S, priority 2006, dated 2013).

For the assay, the system named is Human peripheral blood mononuclear cells (PBMC). Briefly: TNFalfa-Release. It is filed as cell-based. Conditions: inhibition of TNF-a secretion, PBMC pre-incubated 30 minutes, stimulated 18 hours with lipopolysaccharide. As to the method: Human peripheral blood mononuclear cells (PBMC) are Isolated from buffy coats. The blood is mixed with saline at a ratio of 1:1, and the PBMC is isolated by the use of Lymphoprep Tubes™ (Nycomed, Norway). The PBMC is suspended in RPMI1640 with 2% foetal calf serum (FCS), pen/strep and 2 mM L-glutamine at a concentration of 5×105 c/ml. The cells are pre-incubated for 30 minutes with the test compounds in 96 well tissue culture plates and stimulated for 18 hours with lipopolysaccharide 1 mg/ml (Sigma). The level of TNF-a is measured in the culture supernatant by enzyme immuno assays using primary and secondary biotinylated antibodies from R&D systems. Results are expressed as pIC50 values calculated from inhibition curves using as positive controls the secretion in LPS stimulated wells and as negative controls the secretion in unstimulated cells.
As usually defined, the IC50 is the concentration needed to halve the response being measured. `COc1ccc(C(=O)Cc2c(Cl)cncc2Cl)c(O)c1OCC1CC1` [Compound 261, 1-(3-Cyclopropylmethoxy-2-hydroxy-4-methoxy-phenyl)-2-(3,5-dichloro-pyridin-4-yl)-ethanone]: the IC50 is < 1000 nM.

Consider `COc1ccc(C(=O)Cc2c(Cl)cncc2Cl)c(OCCc2cccnc2)c1OC` [Compound 280, 2-(3,5-Dichloro-pyridin-4-yl)-1-[3,4-dimethoxy-2-(2-pyridin-3-yl-ethoxy)-phenyl]-ethanone], for which the half-inhibitory concentration (IC50) is < 1000 nM.

`COc1ccc(C(=O)Cc2c(Cl)cncc2Cl)c(OCC(N)=O)c1OC` [Compound 184, 2-{6-[2-(3,5-Dichloro-pyridin-4-yl)-acetyl]-2,3-dimethoxy-phenoxy}-acetamide]: the IC50 was < 1000 nM.

As for `CCc1ccc(CNC(=O)COc2c(C(=O)Cc3c(Cl)cncc3Cl)ccc(OC)c2OC)cc1` [Compound 233, 2-{6-[2-(3,5-Dichloro-pyridin-4-yl)-acetyl]-2,3-dimethoxy-phenoxy}-N-(4-ethyl-benzyl)-acetamide], the IC50 is < 1000 nM.

Take `CC#CCOc1c(C(=O)Cc2c(Cl)cncc2Cl)ccc(OC)c1OC` [Compound 110, 1-(2-But-2-ynyloxy-3,4-dimethoxy-phenyl)-2-(3,5-dichloro-pyridin-4-yl)-ethanone]: the IC50 is < 1000 nM.

As to `COc1ccccc1CCOc1c(C(=O)Cc2c(Cl)cncc2Cl)ccc(OC)c1OC` [Compound 128, 2-(3,5-Dichloro-pyridin-4-yl)-1-{3,4-dimethoxy-2-[2-(2-methoxy-phenyl)-ethoxy]-phenyl}-ethanone], the IC50 was < 1000 nM.

Turning to `COc1ccc(C(=O)Cc2c(Cl)cncc2Cl)c(OCC(=O)NCC(C)(C)C)c1OC` [Compound 214], the IC50 was < 1000 nM.

Regarding `COc1ccc(C(=O)Cc2c(Cl)cncc2Cl)c(OCC(=O)NCCN(C)C)c1OC` [Compound 224, 2-{6-[2-(3,5-Dichloro-pyridin-4-yl)-acetyl]-2,3-dimethoxy-phenoxy}-N-(2-dimethylamino-ethyl)-acetamide], the IC50 is < 1000 nM.

`COc1ccc(C(=O)Cc2c(Cl)cncc2Cl)c(OCc2ccc(C)cc2)c1OC` [Compound 143, 2-(3,5-Dichloro-pyridin-4-yl)-1-[3,4-dimethoxy-2-(4-methyl-benzyloxy)-phenyl]-ethanone]: the IC50 was < 1000 nM.

Turning to `C=CCOc1c(OC)ccc(C(=O)Cc2c(Cl)cncc2Cl)c1OC` [Compound 193, 1-(3-Allyloxy-2,4-dimethoxy-phenyl)-2-(3,5-dichloro-pyridin-4-yl)-ethanone], the IC50 is < 1000 nM.

Regarding `COc1ccc(C(=O)Cc2c(Cl)cncc2Cl)c(OCC(=O)NCc2cccc(Cl)c2)c1OC` [Compound 246, N-(3-Chloro-benzyl)-2-{6-(2-(3,5-dichloro-pyridin-4-yl)-acetyl)-2,3-dimethoxy-phenoxy}-acetamide], the IC50 is < 1000 nM.

Regarding `COc1ccc(C(=O)Cc2c(Cl)cncc2Cl)c(OCc2ccccc2Cl)c1OC` [Compound 176, 1-[2-(2-Chloro-benzyloxy)-3,4-dimethoxy-phenyl]-2-(3,5-dichloro-pyridin-4-yl)-ethanone], the IC50 is < 1000 nM.

Regarding `COc1ccc(C(=O)Cc2c(Cl)cncc2Cl)c(OCC(=O)NCc2ccccc2C)c1OC` [Compound 237, 2-{6-[2-(3,5-Dichloro-pyridin-4-yl)-acetyl]-2,3-dimethoxy-phenoxy}-N-(2-methyl-benzyl)-acetamide], the IC50 was < 1000 nM.

As to `COc1ccc(C(=O)Cc2c(Cl)cncc2Cl)c(OCC(=O)N[C@H](C)c2ccccc2)c1OC` [Compound 221, (R)-2-{6-[2-(3,5-Dichloro-pyridin-4-yl)-acetyl]-2,3-dimethoxy-phenoxy}-N-(1-phenyl-ethyl)-acetamide], the IC50 is < 1000 nM.

Consider `COc1ccc(C(=O)Cc2c(Cl)cncc2Cl)c(OCCc2ccc(C)cc2)c1OC` [Compound 123, 2-(3,5-Dichloro-pyridin-4-yl)-1-[3,4-dimethoxy-2-(2-p-tolyl-ethoxy)-phenyl]-ethanone], for which the IC50 was < 1000 nM.

As to `C=CCCCOc1c(C(=O)Cc2c(Cl)cncc2Cl)ccc(OC)c1OC` [Compound 138, 2-(3,5-Dichloro-pyridin-4-yl)-1-(3,4-dimethoxy-2-pent-4-enyloxy-phenyl)-ethanone], the IC50 is < 1000 nM.

Regarding `CCOc1c(OC)ccc(C(=O)Cc2c(Cl)cncc2Cl)c1OC` [Compound 188, 2-(3,5-Dichloro-pyridin-4-yl)-1-(3-ethoxy-2,4-dimethoxy-phenyl)-ethanone], the IC50 is < 1000 nM.

For `COc1ccc(C(=O)Cc2c(Cl)cncc2Cl)c(OCC(=O)NC(C)C)c1OC` [Compound 209, 2-{6-[2-(3,5-Dichloro-pyridin-4-yl)-acetyl]-2,3-dimethoxy-phenoxy}-N-isopropyl-acetamide], the IC50 is < 1000 nM.

Take `COc1ccc(C(=O)Cc2c(Cl)cncc2Cl)c(OC)c1OCC1CC1` [Compound 189, 1-(3-Cyclopropylmethoxy-2,4-dimethoxy-phenyl)-2-(3,5-dichloro-pyridin-4-yl)-ethanone]: the 50% inhibitory concentration (IC50) was < 1000 nM.

Turning to `COc1ccc(C(=O)Cc2c(Cl)cncc2Cl)c(OCC(=O)NCc2ccccn2)c1OC` [Compound 229, 2-{6-[2-(3,5-Dichloro-pyridin-4-yl)-acetyl]-2,3-dimethoxy-phenoxy}-N-pyridin-2-ylmethyl-acetamide], the IC50 was < 1000 nM.

On to `C=CCOc1c(C(=O)Cc2c(Cl)cncc2Cl)ccc(OC)c1OC` [Compound 114, 1-(2-Allyloxy-3,4-dimethoxy-phenyl)-2-(3,5-dichloro-pyridin-4-yl)-ethanone], for which the IC50 is < 1000 nM.

Consider `COc1ccc(C(=O)Cc2c(Cl)cncc2Cl)c(OCC(=O)NC[C@H](O)c2ccccc2)c1OC` [Compound 252, (R)-2-{6-[2-(3,5-Dichloro-pyridin-4-yl)-acetyl]-2,3-dimethoxy-phenoxy}-N-(2-hydroxy-2-phenyl-ethyl)-acetamide], for which the IC50 was < 1000 nM.

Consider `COc1ccc(C(=O)Cc2c(Cl)cncc2Cl)c(OCCc2ccccc2)c1OC` [Compound 112, 2-(3,5-Dichloro-pyridin-4-yl)-1-(3,4-dimethoxy-2-phenethyloxy-phenyl)-ethanone], for which the IC50 is < 1000 nM.

In the case of `COc1ccc(C(=O)Cc2c(Cl)cncc2Cl)c(OCC(=O)NCCCN(C)C)c1OC` [Compound 225, 2-{6-[2-(3,5-Dichloro-pyridin-4-yl)-acetyl]-2,3-dimethoxy-phenoxy}-N-(3-dimethylamino-propyl)-acetamide], the IC50 is < 1000 nM.

In the case of `COc1ccc(C(=O)Cc2c(Cl)cncc2Cl)c(OCC(=O)OCc2ccccc2)c1OC` [Compound 132, {6-[2-(3,5-Dichloro-pyridin-4-yl)-acetyl]-2,3-dimethoxy-phenoxy}-acetic acid benzyl ester], the IC50 is < 1000 nM.

With `COc1ccc(C(=O)Cc2c(Cl)cncc2Cl)c(OCC(=O)NCCNC(C)=O)c1OC` [Compound 251, N-(2-Acetylamino-ethyl)-2-{6-[2-(3,5-dichloro-pyridin-4-yl)-acetyl]-2,3-dimethoxy-phenoxy}-acetamide], the IC50 was < 1000 nM.

Regarding `COc1ccc(C(=O)Cc2c(Cl)cncc2Cl)c(OCC(=O)N(C)c2ccccc2)c1OC` [Compound 206, 2-{6-[2-(3,5-Dichloro-pyridin-4-yl)-acetyl]-2,3-dimethoxy-phenoxy}-N-methyl-N-phenyl-acetamide], the IC50 was < 1000 nM.

As to `COc1ccc(C(=O)Cc2c(Cl)cncc2Cl)c(OCC(=O)NCc2ccncc2)c1OC` [Compound 232, 2-{6-[2-(3,5-Dichloro-pyridin-4-yl)-acetyl]-2,3-dimethoxy-phenoxy}-N-pyridin-4-ylmethyl-acetamide], the IC50 was < 1000 nM.

Consider `COc1ccccc1CNC(=O)COc1c(C(=O)Cc2c(Cl)cncc2Cl)ccc(OC)c1OC` [Compound 218, 2-{6-[2-(3,5-Dichloro-pyridin-4-yl)-acetyl]-2,3-dimethoxy-phenoxy}-N-(2-methoxy-benzyl)-acetamide], for which the IC50 is < 1000 nM.

On to `COc1ccc(C(=O)Cc2c(Cl)cncc2Cl)c(OCC(=O)NCc2cccc(F)c2F)c1OC` [Compound 235, 2-{6-[2-(3,5-Dichloro-pyridin-4-yl)-acetyl]-2,3-dimethoxy-phenoxy}-N-(2,3-difluoro-benzyl)-acetamide], for which the IC50 was < 1000 nM.

As for `COc1ccc(C(=O)Cc2c(Cl)c[n+]([O-])cc2Cl)c(OCCc2ccccc2)c1OC` [Compound 271, 2-(3,5-Dichloro-1-oxy-pyridin-4-yl)-1-(3,4-dimethoxy-2-phenethyloxy-phenyl)-ethanone], the IC50 was < 1000 nM.

Consider `CCOc1c(OC)ccc(C(=O)Cc2c(Cl)cncc2Cl)c1OCc1nnc(C2CC2)s1` [Compound 264, 1-[2-(5-Cyclopropyl-[1,3,4]thiadiazol-2-ylmethoxy)-3-ethoxy-4-methoxy-phenyl]-2-(3,5-dichloro-pyridin-4-yl)-ethanone], for which the IC50 was < 1000 nM.

As to `C=CCOc1c(OC)ccc(C(=O)Cc2c(Cl)cncc2Cl)c1OCCc1ccccc1` [Compound 268, 1-(3-Allyloxy-4-methoxy-2-phenethyloxy-phenyl)-2-(3,5-dichloro-pyridin-4-yl)-ethanone], the IC50 was < 1000 nM.

Regarding `COc1ccc(C(=O)Cc2c(Cl)cncc2Cl)c(OCC(=O)NCc2ccc(Cl)cc2)c1OC` [Compound 248, N-(4-Chloro-benzyl)-2-{6-[2-(3,5-dichloro-pyridin-4-yl)-acetyl]-2,3-dimethoxy-phenoxy}-acetamide], the IC50 was < 1000 nM.

With `COc1ccc(C(=O)Cc2c(Cl)cncc2Cl)c(OCc2cccc(OC(F)(F)F)c2)c1OC` [Compound 163, 2-(3,5-Dichloro-pyridin-4-yl)-1-[3,4-dimethoxy-2-(3-trifluoromethoxy-benzyloxy)-phenyl]-ethanone], the IC50 was < 1000 nM.
